Data from patent publication US20230348415A1, “BISPECIFIC ANTAGONISTS OF RETINOL-BINDING PROTEIN 4 THAT STABILIZE TRANSTHYRETIN TETRAMERS, THEIR PREPARATION, AND USE IN THE TREATMENT OF COMMON AGE-RELATED COMORBIDITIES” (The Trustees of Columbia University in the City of New York, priority 2020, published 2023).

Experiments:
[1] = biological target: serum RBP4 (Mus musculus (Mouse), UniProt Q00724); test: Serum RBP4 measurement after a single oral dose in mice; format: in vivo
Protocol: FIG. 5. Pharmacokinetic and pharmacodynamic properties of (±)-44 in mice. (A) Serum RBP4 levels following a single 25 mg/kg oral administration of (±)-44. (B) Blood compound levels following administration of a single oral 5 mg/kg dose of (±)-44. Data represented as the mean±SD. Three mice per treatment group were used in the study.
Blood samples were collected from a tail vein. Whole blood was drawn into a centrifuge tube and was allowed to clot at room temperature for 30 minutes followed by centrifugation at 2000 g for 15 minutes at […] to collect serum. Aliquots of plasma samples collected in the mouse pharmacokinetic study were analyzed for the RBP4 concentration using the RBP4 (mouse/rat) dual ELISA kit (AdipoGen, San Diego, CA) following the manufacturer's instructions. In adi-hRBP4 transgenic mouse experiments, blood samples were collected from a tail vein. […] Mouse serum RBP4 (produced predominantly in the liver) was measured using the RBP4 (mouse/rat) dual ELISA kit (AdipoGen, San Diego, CA; catalog number AG-45A-0012YTP-KI01)

[2] = Plasma protein binding, human plasma; format: in vitro ADME; settings: pH 7.4, read-out: % PPB, H (converted)
Protocol: Plasma protein binding (PPB) for compounds determination for compound (±)-44 in PBS (pH 7.4) was conducted by Eurofins using equilibrium dialysis of plasma with HPLC-UV/Vis detection.
The peak areas of the test compound in the buffer and test samples were used to calculate percent binding and recovery according to the following formulas:
• Areap=Peak area of analyte in protein matrix • Areab=Peak area of analyte in buffer • Areac=Peak area of analyte in control sample

[3] = In vivo PK in CD-1 mice (IV and PO); set-up: species or system mouse; settings: male CD-1 mice
Protocol: • IV dosing vehicles: 3% DMA/45% PEG300/12% ethanol/40% sterile water • PO dosing vehicle: 2% Tween 80 in 0.9% saline • Dose formulation: The dose formulation was prepared by the step-wise addition (in the order listed) of the individual components of the vehicle to a weighed quantity of test compound in a volume that yielded the desired final concentration. Each formulation was prepared by mixing a weighed quantity of test compound with the appropriate volume of vehicle. • Dosing Solution Analysis: The dosing solutions were analyzed by LC-MS/MS. The dosing solutions were diluted into mouse blood and analyzed in triplicate. All concentrations are expressed as mg/mL of the free base. The nominal dosing level was used in all calculations for Group 1.
• Species and strain: mouse; male CD-1 • Mean weight: 0.034 kg for the IV arm; 0.027 kg for PO arm • Number: 6 animals total (three animals per dosing group (Group 1 (IV) and Group 2 (PO)), per study) • COMPLIANCE: This non-clinical study followed established practices and standard operating procedures of Absorption Systems as well as the study protocol. This study was exploratory in nature and was not conducted in accordance with the principles set forth in the United States Food and Drug Administration (FDA) Good Laboratory Practice (GLP) Regulations, 21 Code of Federal regulations (CFR) Part 58. The report is archived in a validated scientific data management system. Electronic signatures comply with the regulation 21 CFR Part 11.
Blood was collected from mice at pre-dose and at 5, 15 and 30 min, and 1, 2, 4, 8, 24 and 48 h post-dose. Hemolyzed blood samples were extracted by protein precipitation using acetonitrile. Following protein extraction with acetonitrile, compound levels were measured by LC-MS/MS. Pharmacokinetic parameters were calculated from the time course of the blood concentrations. Pharmacokinetic parameters were determined with Phoenix WinNonlin (v8.0) software using a non-compartmental model. The maximum blood concentrations (CO) after IV dosing were estimated by extrapolation of the first two time points back to t=0. The maximum blood concentration (Cmax) and the time to reach maximum blood concentration (tmax) after PO dosing were observed from the data. The area under the time concentration curve (AUC) was calculated using the linear trapezoidal rule with calculation to the last quantifiable data point, and with extrapolation to infinity if applicable. Blood half-life (t ½) was calculated from 0.693/slope of the terminal elimination phase. Mean residence time, MRT, was calculated by dividing the area under the moment curve (AUMC) by the AUC. Clearance (CL) was calculated from dose/AUC. Steady-state volume of distribution (Vss) was calculated from CL*MRT. Bioavailability was determined by dividing the individual dose normalized PO AUC∞ values by the average dose-normalized IV AUC∞ value. Any samples below the limit of quantitation (1.00 ng/mL) were treated as zero for pharmacokinetic data analysis.

[4] = biological target: PPARγ (Homo sapiens (Human), UniProt P37231); test: PPARγ agonist activity
Chain of PPARγ (P37231 whole entry, species assumed): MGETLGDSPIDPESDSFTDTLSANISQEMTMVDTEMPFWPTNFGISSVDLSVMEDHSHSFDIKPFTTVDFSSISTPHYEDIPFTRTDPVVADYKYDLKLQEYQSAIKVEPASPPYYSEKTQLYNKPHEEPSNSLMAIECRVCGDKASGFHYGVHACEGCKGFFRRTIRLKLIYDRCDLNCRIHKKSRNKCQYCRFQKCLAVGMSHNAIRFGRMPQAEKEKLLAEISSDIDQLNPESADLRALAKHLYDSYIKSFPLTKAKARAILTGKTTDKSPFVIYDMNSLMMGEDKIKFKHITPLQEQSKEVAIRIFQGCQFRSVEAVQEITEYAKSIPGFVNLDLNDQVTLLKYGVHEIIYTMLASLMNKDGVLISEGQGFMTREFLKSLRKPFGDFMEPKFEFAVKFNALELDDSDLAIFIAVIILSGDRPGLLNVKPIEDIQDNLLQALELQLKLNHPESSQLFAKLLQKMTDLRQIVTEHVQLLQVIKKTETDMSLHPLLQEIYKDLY

[5] = Metabolic stability and clearance in human liver microsomes; format: in vitro ADME
Protocol: The results of metabolic stability determinations for novel compounds and testosterone (positive control) were conducted in the presence of human, rat, mouse, and monkey liver microsomes. Values shown are percent of parent remaining after a 30 minute incubation. All measurements were done in duplicate. Assay results for testosterone were within an acceptable range.
Mixed-gender human liver microsomes (Lot #1710084), male Sprague-Dawley rat liver microsomes (Lot #1610290), male CD-1 mouse liver microsomes (Lot #1710069), and male Cynomolgous liver microsomes (Lot #1510193) were purchased from XenoTech. The reaction mixture, minus NADPH, was prepared as described below. The test article was added into the reaction mixture at a final concentration of 1 μM. The control compound, testosterone, was run simultaneously with the test article in a separate reaction. An aliquot of the reaction mixture (without cofactor) was equilibrated in a shaking water bath at 37° C. for 3 minutes. The reaction was initiated by the addition of cofactor, and the mixture was incubated in a shaking water bath at 37° C. Aliquots (100 μL) were withdrawn at 0, 10, 20, 30, and 60. […] Half-lives were calculated using GraphPad software, fitting to a single-phase exponential decay equation.

**Q.** Which results are given for Cc1cc(C(=O)O)nc(N2CCC(COc3ccccc3C(F)(F)F)C2)n1 (racemic) [Compound (±)-44, (±)-6-Methyl-2-(3-((2-(trifluoromethyl)phenoxy)methyl)pyrrolidin-1-yl)pyrimidine-4-carboxylic Acid]?
**A.** effect on serum TTR levels ([1]; compound dosing in mice, data not shown): no effect; maximum reduction in serum RBP4 ([1]; single 25 mg/kg oral dose, 6 h after dose): 81%; reduction in serum RBP4 at the 24 h time point ([1]; single 25 mg/kg oral dose, 24 h): 64%; fraction unbound [2]: 0.002; CL ([3]; IV 2 mg/kg): 0.832 mL/min/kg; AUCINF ([3]; PO 5 mg/kg): 52439 ng·h/mL; t1/2 ([3]; PO 5 mg/kg): 9.9 h; AUC(0-inf) ([3]; mouse, whole blood, IV 2 mg/kg): 40300 ng·h/mL; AUC(0-t) ([3]; mouse, whole blood, IV 2 mg/kg): 39500 ng·h/mL; clearance ([3]; mouse, whole blood, IV 2 mg/kg): 0.832 mL/min/kg; half-life ([3]; mouse, whole blood, IV 2 mg/kg): 8.6 h; C0 ([3]; mouse, whole blood, IV 2 mg/kg, blood): 9130 ng/mL; Vd ([3]; mouse, whole blood, IV 2 mg/kg, read-out: Vss): 0.518 L/kg; bioavailability ([3]; mouse, whole blood, PO 5 mg/kg vs IV 2 mg/kg): 52%; AUC(0-inf) ([3]; mouse, whole blood, PO 5 mg/kg): 52400 ng·h/mL; AUC(0-t) ([3]; mouse, whole blood, PO 5 mg/kg): 50400 ng·h/mL; Tmax ([3]; mouse, whole blood, PO 5 mg/kg): 0.83 h; half-life ([3]; mouse, whole blood, PO 5 mg/kg): 9.9 h; Cmax ([3]; mouse, whole blood, PO 5 mg/kg, blood): 3030 ng/mL; IC50 [4]: > 100 µM; PPARγ agonist activity [4]: devoid of PPARγ agonist activity; Liver Microsomal Stability (% remaining at 30 min), HLM ([5]; 30 minute incubation): 105%; microsomal CLint at 1 μM ([5]; both sexes, human liver microsomes, read-out: Microsomal CLint, H): < 0.0231 µL/min/mg
